Values quoted from earlier work in patent publication US11965206B2, “Method of dosing a patient with multiple drugs using adjusted phenotypes of CYP450 enzymes” (priority 2018, dated 2024).
Read-outs that look alike come from different tables or passages of the source.

How the values were obtained:
CYP450 enzyme 2D6 = CYP450 enzyme 2D6 (Homo sapiens, UniProt P10635)
CYP450 enzyme 2C9 = CYP450 enzyme 2C9 (Homo sapiens, UniProt P11712); details: found in drug databases
CYP450 enzyme 2B6 = target: T1, CYP450 enzyme 2B6 (Homo sapiens, UniProt P20813); details: found in drug databases
T1 sequence (P20813 1-491): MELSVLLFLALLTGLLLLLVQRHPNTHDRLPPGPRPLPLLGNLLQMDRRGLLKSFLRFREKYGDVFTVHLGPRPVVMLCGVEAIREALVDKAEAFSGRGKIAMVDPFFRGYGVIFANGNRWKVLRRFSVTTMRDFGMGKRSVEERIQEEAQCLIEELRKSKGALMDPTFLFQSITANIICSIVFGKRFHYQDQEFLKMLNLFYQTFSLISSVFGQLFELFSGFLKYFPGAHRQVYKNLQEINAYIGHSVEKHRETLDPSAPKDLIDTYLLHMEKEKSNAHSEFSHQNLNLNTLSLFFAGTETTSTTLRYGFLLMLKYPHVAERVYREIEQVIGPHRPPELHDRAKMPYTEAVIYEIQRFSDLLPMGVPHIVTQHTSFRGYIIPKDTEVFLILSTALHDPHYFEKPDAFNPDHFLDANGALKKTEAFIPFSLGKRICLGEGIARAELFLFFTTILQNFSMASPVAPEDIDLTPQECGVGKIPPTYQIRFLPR

CYP450 enzyme 2C19 = CYP450 enzyme 2C19 (Homo sapiens, UniProt P33261); details: found in drug databases
CYP450 enzyme 3A4 = CYP450 enzyme 3A4 (Homo sapiens, UniProt P08684)
Sequence of CYP450 enzyme 3A4 (P08684 whole entry): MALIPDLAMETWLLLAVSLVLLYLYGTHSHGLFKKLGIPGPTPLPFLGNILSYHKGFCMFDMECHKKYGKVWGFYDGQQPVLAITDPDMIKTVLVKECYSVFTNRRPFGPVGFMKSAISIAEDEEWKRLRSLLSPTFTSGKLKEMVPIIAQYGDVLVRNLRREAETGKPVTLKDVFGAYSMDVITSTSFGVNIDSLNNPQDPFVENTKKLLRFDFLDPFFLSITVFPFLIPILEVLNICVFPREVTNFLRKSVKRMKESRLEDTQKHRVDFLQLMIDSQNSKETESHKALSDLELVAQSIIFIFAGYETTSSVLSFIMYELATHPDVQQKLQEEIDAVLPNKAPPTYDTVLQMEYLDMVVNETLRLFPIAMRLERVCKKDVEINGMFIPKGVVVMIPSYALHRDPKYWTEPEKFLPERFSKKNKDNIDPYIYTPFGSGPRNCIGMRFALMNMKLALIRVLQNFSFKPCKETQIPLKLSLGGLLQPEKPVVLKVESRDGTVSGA

Sequence of CYP450 enzyme 2D6 (P10635 whole entry): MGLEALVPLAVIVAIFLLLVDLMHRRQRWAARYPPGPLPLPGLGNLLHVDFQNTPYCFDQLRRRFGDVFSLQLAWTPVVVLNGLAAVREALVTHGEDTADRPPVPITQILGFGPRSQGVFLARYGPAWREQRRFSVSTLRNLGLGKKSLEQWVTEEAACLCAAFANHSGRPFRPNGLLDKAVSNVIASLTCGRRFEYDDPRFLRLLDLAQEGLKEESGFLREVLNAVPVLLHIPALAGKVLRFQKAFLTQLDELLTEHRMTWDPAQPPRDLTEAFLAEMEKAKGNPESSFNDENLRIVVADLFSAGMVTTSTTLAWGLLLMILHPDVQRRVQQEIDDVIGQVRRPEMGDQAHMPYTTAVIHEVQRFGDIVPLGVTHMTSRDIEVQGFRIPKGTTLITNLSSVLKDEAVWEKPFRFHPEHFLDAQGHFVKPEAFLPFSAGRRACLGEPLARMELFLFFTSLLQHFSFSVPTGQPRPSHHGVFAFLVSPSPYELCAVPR
Sequence of CYP450 enzyme 2C9 (P11712 whole entry): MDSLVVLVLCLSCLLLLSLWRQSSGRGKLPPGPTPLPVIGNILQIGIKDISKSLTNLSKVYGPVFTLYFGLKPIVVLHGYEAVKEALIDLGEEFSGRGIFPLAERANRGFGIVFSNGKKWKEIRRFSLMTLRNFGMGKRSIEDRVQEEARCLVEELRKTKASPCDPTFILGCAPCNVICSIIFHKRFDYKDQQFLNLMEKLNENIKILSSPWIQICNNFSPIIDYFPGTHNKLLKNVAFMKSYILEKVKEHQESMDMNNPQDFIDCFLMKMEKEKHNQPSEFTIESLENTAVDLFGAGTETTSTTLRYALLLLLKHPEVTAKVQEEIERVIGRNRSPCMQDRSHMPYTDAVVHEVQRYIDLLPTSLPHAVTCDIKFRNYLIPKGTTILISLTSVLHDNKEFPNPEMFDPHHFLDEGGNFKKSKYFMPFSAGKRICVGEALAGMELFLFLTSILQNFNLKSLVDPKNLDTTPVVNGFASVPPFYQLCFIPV
Sequence of CYP450 enzyme 2C19 (P33261 whole entry): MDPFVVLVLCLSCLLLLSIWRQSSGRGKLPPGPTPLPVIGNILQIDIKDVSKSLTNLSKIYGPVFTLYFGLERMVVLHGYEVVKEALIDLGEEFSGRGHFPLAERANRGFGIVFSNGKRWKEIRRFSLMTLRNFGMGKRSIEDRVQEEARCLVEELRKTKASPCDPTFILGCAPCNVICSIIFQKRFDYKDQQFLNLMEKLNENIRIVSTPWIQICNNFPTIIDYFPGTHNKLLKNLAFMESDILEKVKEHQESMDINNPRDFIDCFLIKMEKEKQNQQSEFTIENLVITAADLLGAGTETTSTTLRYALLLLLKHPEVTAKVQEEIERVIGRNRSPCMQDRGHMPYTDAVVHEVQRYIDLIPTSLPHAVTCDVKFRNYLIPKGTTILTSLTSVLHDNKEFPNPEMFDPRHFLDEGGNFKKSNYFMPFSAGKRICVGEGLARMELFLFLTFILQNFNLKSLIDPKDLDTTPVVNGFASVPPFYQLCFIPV

| SMILES | substrate for 2D6 (CYP450 enzyme 2D6; found in drug databases) | substrate for 2C9 (CYP450 enzyme 2C9) | strong, moderate or weak inhibitor of 2D6 (CYP450 enzyme 2D6; found in drug databases) | other results |
| --- | --- | --- | --- | --- |
| O=C1CCc2ccc(OCCCCN3CCN(c4cccc(Cl)c4Cl)CC3)cc2N1 [Abilify] | substrate |  |  |  |
| CCCC(CCC)C(=O)O [Depakote] |  | substrate |  | strong, moderate or weak inhibitor of 2C9 (CYP450 enzyme 2C9): weak inhibitor; substrate for 2B6 (CYP450 enzyme 2B6): substrate; strong, moderate or weak inhibitor of 2C19 (CYP450 enzyme 2C19): weak inhibitor |
| COc1ccc([C@@H]2Sc3ccccc3N(CCN(C)C)C(=O)[C@@H]2OC(C)=O)cc1 [Diltiazem, diltiazem] |  |  | weak inhibitor |  |
| O=C(CCCN1CCC(O)(c2ccc(Cl)cc2)CC1)c1ccc(F)cc1 [Haldol] | substrate |  | weak inhibitor |  |
| Fc1ccc([C@@H]2CCNC[C@H]2COc2ccc3c(c2)OCO3)cc1 [paroxetine] |  |  |  | substrate for 2D6 (CYP450 enzyme 2D6): substrate |

Further lines, with some results ahead:

| substrate for 2D6 (CYP450 enzyme 2D6; found in drug databases) | substrate for 2C9 (CYP450 enzyme 2C9) | strong, moderate or weak inhibitor of 2D6 (CYP450 enzyme 2D6; found in drug databases) | SMILES | other results |
| --- | --- | --- | --- | --- |
|  | substrate |  | CCCCC1=NC2(CCCC2)C(=O)N1Cc1ccc(-c2ccccc2-c2nnn[nH]2)cc1 [Irbesartan] |  |
|  |  | weak inhibitor | CN(C)CCC[C@@]1(c2ccc(F)cc2)OCc2cc(C#N)ccc21 [Lexapro] | substrate for 3A4 (CYP450 enzyme 3A4): substrate; substrate for 2C19 (CYP450 enzyme 2C19): substrate |
| substrate | substrate |  | CNCCC(Oc1ccc(C(F)(F)F)cc1)c1ccccc1 (stereo not shown) [Prozac] | strong, moderate or weak inhibitor of 2C9 (CYP450 enzyme 2C9): moderate inhibitor |
| substrate |  | weak inhibitor | Cc1nc2n(c(=O)c1CCN1CCC(c3noc4cc(F)ccc34)CC1)CCCC2 [Risperidone] |  |
| substrate |  |  | COCCc1ccc(OCC(O)CNC(C)C)cc1 (stereo not shown) [metoprolol] |  |
